Measurements reported in PubChem BioAssay (NCI).
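Following 48 hours of exposure in 96-well plates, responses at five concentrations were used to interpolate endpoints linearly. Here, GI50 denotes the concentration required for 50% inhibition of growth. TGI: concentration producing complete growth inhibition.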

Legend:
Experiment in all cases: inhibition of tumour cell growth, NCI panel, 48 h
[1] = test system: SW-620 colon
[2] = test system: DU-145 prostate
[3] = test system: HCC-2998 colon
[4] = test system: TK-10 renal
[5] = test system: SNB-75 CNS
[6] = test system: 786-0 renal
[7] = test system: MALME-3M melanoma
[8] = test system: NCI/ADR-RES ovarian
[9] = test system: K-562 leukemia
[10] = test system: M14 melanoma
[11] = test system: HCT-116 colon
[12] = test system: SN12C renal
[13] = test system: MOLT-4 leukemia
[14] = test system: NCI-H460 lung
[15] = test system: OVCAR-3 ovarian
[16] = test system: LOX IMVI melanoma
[17] = test system: PC-3 prostate
[18] = test system: IGROV1 ovarian
[19] = test system: UACC-62 melanoma
[20] = test system: MCF7 breast
[21] = test system: HT29 colon
[22] = test system: SF-539 CNS
[23] = test system: OVCAR-8 ovarian
[24] = test system: BT-549 breast
[25] = test system: A498 renal
[26] = test system: KM12 colon
[27] = test system: NCI-H522 lung
[28] = test system: OVCAR-5 ovarian
[29] = test system: SNB-19 CNS

## O=c1c2c3c(sc2n2c(-c4cc(-c5ccccc5)no4)nnc2n1Cc1ccccc1)CCCC3
[1]
  GI50: 31.4 µM
  TGI: > 100 µM
[2]
  GI50: 19.6 µM
  TGI: > 93.3 µM
[3]
  GI50: 20.7 µM
  TGI: > 76.6 µM
[4]
  GI50: 21.5 µM
  TGI: > 82.8 µM
[5]
  GI50: 11.2 µM
  TGI: > 100 µM
[6]
  GI50: 20.5 µM
  TGI: 98.9 µM
[7]
  GI50: 32.1 µM
  TGI: 97.3 µM
[8]
  GI50: 30.2 µM
  TGI: > 100 µM
[9]
  GI50: 7.01 µM
  TGI: > 68.1 µM
[10]
  GI50: 27.2 µM
  TGI: > 100 µM
[11]
  GI50: 10.3 µM
  TGI: 24.5 µM
[12]
  GI50: 22.7 µM
  TGI: > 100 µM
[13]
  GI50: 3.72 µM
  TGI: 32.7 µM
[14]
  GI50: 12.6 µM
  TGI: 36.8 µM
[15]
  GI50: 8.61 µM
  TGI: 30.5 µM
[16]
  GI50: 7.76 µM
  TGI: > 62.4 µM
[17]
  GI50: 9.19 µM
  TGI: > 100 µM
[18]
  GI50: 8.22 µM
  TGI: 87.6 µM
[19]
  GI50: 17.1 µM
  TGI: 44 µM
[20]
  GI50: 16.3 µM
  TGI: > 76.3 µM
[21]
  GI50: 29.2 µM
  TGI: > 100 µM
[22]
  GI50: 19.2 µM
  TGI: 72.2 µM
[23]
  GI50: 21.4 µM
  TGI: > 100 µM
[24]
  GI50: 13.7 µM
  TGI: 63.2 µM
[25]
  GI50: 36.5 µM
  TGI: > 100 µM
[26]
  GI50: 15.8 µM
  TGI: 55.2 µM
[27]
  GI50: 3.4 µM
  TGI: 28.1 µM
[28]
  GI50: 91.2 µM
  TGI: > 100 µM
[29]
  GI50: 31.8 µM
  TGI: > 100 µM
